One may read the Ki as a dissociation constant, usually derived from enzyme kinetics or from competition with a known ligand. Lower therefore signals a stronger hold on the target.

One experiment relates to human plasma. Description: In vitro aPTT clotting time. In kind it is biochemical. The following applies: for aPTT: in vitro. On the procedure: The aPTT and PT were determined using a Thrombotimer (Behnk Elektronik, Norderstedt, Germany) in accordance with the manufacturer’s instructions and as previously described. Briefly, citrated normal human plasma (90 μL) was mixed with 10 μL JJ1 and incubated for 1 min at 37 °C. Subsequently, the aPTT assay reagent (100 μL) was added, the plasma sample was incubated for an additional 1 min at 37 °C, 20 mM CaCl2 (100 μL) was added, and the clotting times were recorded. For the PT assays, citrated normal human plasma (90 μL) was mixed with 10 μL JJ1 stock solution and was incubated for 1 min at 37 °C. The PT assay reagent (200 μL), which had been pre-incubated for 10 min at 37 °C, was subsequently added and the clotting time was recorded. The PT results were expressed in seconds and as International Normalized Ratios (INR): INR = (PT sample/PT control)^ISI, where ISI = international sensitivity index. The aPTT results were also expressed in seconds. All experimental protocols (KNUH 2012-01-010) were approved by the Institutional Review Board of Kyungpook National University Hospitals (Daegu, Republic of Korea).

A further experiment addresses T1, Protein Ca (Homo sapiens, UniProt P04070).
T1 construct: thrombin versus trypsin, factor Xa, elastase, plasmin, protein Ca, streptokinase, tPA, and urokinase
Description: Chromogenic substrate assay, Ki (Dixon). In kind it is biochemical.

For the next experiment, the target named is Streptokinase (Homo sapiens, UniProt P00747). Description: Chromogenic substrate assay, Ki (Dixon). In kind it is biochemical.
Streptokinase, sequence (P00747 581-810 limits assumed): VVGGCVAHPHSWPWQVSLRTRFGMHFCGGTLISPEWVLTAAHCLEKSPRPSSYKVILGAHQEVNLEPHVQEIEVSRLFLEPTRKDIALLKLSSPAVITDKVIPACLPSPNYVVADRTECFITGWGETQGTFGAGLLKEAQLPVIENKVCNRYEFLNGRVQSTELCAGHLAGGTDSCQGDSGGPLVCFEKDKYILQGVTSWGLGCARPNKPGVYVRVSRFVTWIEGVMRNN
The test system of the next experiment is mouse platelet. Briefly: Ex vivo thrombin-induced platelet aggregation. The settings on record: i.v. injection. In kind it is in vivo. The procedure: The in vitro platelet aggregation study was performed according to a previously reported method[59],[62]. Washed human platelets were incubated with the indicated concentration of JJ1 in DMSO for 1, 3, 5, or 10 min and subsequently stimulated by thrombin in 0.9% saline solution at 37 °C for 5 min. Platelet aggregation was recorded using an aggregometer (Chronolog, Havertown, PA, USA). For the ex vivo aggregation assay, male mice were fasted overnight and the indicated concentration of JJ1 in DMSO was administered by i.v. injection. After 24 h, PRP (10^9 platelets/mL) in a total volume of 240 μL was incubated at 37 °C for 1.5 min in the aggregometer with continuous stirring at 1000 rpm and subsequently stimulated with thrombin. Platelet aggregation was recorded as described above.

The target of the next experiment is T2, thrombin (Homo sapiens, UniProt P00734).
T2 construct: purchased Haematologic Technologies (Essex Junction, VT)
Briefly: Enzyme-based assay of purchased virtual screening molecules, single dose. In kind it is biochemical. The following applies: single concentration of 50 μM. An excerpt:
Prior to the high-throughput virtual screening, we selected the best crystal structure for docking with DOCK 3.6[17] using the selected inhibitors and their physicochemically matched but topologically different decoys. […] Because the earlier enrichment of true positives is more important for high throughput SBVS, we used the value of LogAUC as a metric, selecting 2CF9-H[18] as the best structure. […] Besides, the enrichment at 1% (EF1) was 37.1. The values of LogAUC and EF1 were approximately two-fold higher than the averages (26.1 for LogAUC and 17.1 for EF1) (Figs 1 and S1). Some structures had higher AUC values than that of 2CF9-H, but the value of LogAUC was the highest for 2CF9-H (Fig. S1). The optimization necessitated the calculations of more than 2 million protein and ligand pairs. The high speed of DOCK 3.6 and the in-house Linux cluster system consisting of 128 cores efficiently managed the calculations in three days. Of the candidate molecules having the lowest scores in the high-throughput SBVS, we chose the molecules with desirable geometries and physicochemical properties by a simple manual and visual inspection. […] It is known that the scoring function of virtual screening itself is insufficient to capture such an abnormality. Table S1 and Fig. S2 list the top 40 molecules, which were selected through high-throughput SBVS; we purchased these molecules to measure enzymatic inhibitory activity.

Another experiment deals with T3, human α-thrombin (Homo sapiens, UniProt P00734).
T3 construct: purchased Haematologic Technologies (Essex Junction, VT)
Briefly: Chromogenic substrate assay, Ki (Dixon). In kind it is biochemical.

The target of another experiment is Trypsin. Briefly: Chromogenic substrate assay, Ki (Dixon). In kind it is biochemical, human. The following applies: Trypsin; mean ± SD (n = 5). The procedure: (§1) Chromogenic substrate assays were performed using a Labsystems IEMS (Cergy Pontoise, France) microtiter plate reader. K i values were calculated according to the method of Dixon[65]. In each assay, the compound was tested at a minimum of seven concentrations, in duplicate, to obtain an inhibition curve. The following general procedures were adopted for each assay. In a 96-well microtiter plate, 25 μL of inhibitor solution or buffer was added to 50 μL of substrate. The enzyme solution (25 μL) was added just before the plate was placed in the microtiter plate reader for 1 h at 37 °C. The hydrolysis of the substrate yields p-nitroaniline, which was continuously monitored spectrophotometrically at 405 nm. The maximal initial reaction rates were calculated and expressed as millioptical density per minute.

The next experiment deals with T4, Factor XIa (Homo sapiens, UniProt P03951).
T4 construct: Factor XIa
T4 sequence (P03951 388-625 limits assumed): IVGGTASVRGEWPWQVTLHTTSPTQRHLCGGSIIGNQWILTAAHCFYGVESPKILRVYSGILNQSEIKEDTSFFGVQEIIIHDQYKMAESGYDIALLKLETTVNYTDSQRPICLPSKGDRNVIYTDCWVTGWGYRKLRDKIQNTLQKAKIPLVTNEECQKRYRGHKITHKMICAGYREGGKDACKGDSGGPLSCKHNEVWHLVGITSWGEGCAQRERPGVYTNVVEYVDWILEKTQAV
T4 sequence (P03951 19-387 limits assumed): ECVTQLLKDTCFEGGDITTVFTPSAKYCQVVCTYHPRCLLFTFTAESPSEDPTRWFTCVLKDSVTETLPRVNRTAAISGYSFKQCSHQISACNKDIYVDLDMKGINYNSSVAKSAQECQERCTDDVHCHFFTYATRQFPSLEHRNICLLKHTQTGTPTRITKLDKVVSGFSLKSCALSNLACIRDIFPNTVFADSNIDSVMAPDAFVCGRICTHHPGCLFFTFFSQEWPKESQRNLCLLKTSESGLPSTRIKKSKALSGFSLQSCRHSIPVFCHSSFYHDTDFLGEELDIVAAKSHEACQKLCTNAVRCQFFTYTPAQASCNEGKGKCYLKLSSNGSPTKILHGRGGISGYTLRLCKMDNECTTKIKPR
Description: Chromogenic substrate assay, Ki (Dixon). In kind it is biochemical. The procedure:
as §1

A further experiment has as its target T5, Factor IXa (Homo sapiens, UniProt P00740).
T5 construct: Factor IXa
Briefly: Chromogenic substrate assay, Ki (Dixon). In kind it is biochemical. On the procedure:
as §1

Experiment [1] can be described thus: FeCl3-induced arterial thrombosis model. The following applies: mice, i.v. In kind it is in vivo, C57BL/6 mice. On the procedure: The FeCl3-induced thrombosis mouse model was established as previously described. Male C57BL/6 mice were fasted overnight and were administered JJ1 in DMSO by intravenous injection. Then, mice were anesthetized using 3% isoflurane (Forane®, Choongwae Pharma. Corp., Seoul, Korea) and injected intravenously with 0.1 mL 0.1% rhodamine 6 G (Sigma). A testicular artery (200 μm in diameter) was carefully exposed and a cotton thread (200 μm in diameter) saturated with 0.25 mol/L FeCl3 was applied to the adventitial surface. After 5 min, the cotton thread was removed, and the wound was flushed with saline solution. Thrombus formation was monitored at 35 °C by 3-dimensional imaging as previously described. The size and time of thrombus formation were monitored, and the findings were scored as follows: no thrombus, 0; small thrombus (50 μm × 75 μm), 1; medium-sized thrombus (100 μm × 150 μm), 2; large thrombus (200 μm × 300 μm), 3. The time from FeCl3-mediated endothelial injury to occlusion of the testicular artery by a large thrombus was measured.

SMILES strings stand for the structures.

T5 sequence (P00740 227-461 limits assumed): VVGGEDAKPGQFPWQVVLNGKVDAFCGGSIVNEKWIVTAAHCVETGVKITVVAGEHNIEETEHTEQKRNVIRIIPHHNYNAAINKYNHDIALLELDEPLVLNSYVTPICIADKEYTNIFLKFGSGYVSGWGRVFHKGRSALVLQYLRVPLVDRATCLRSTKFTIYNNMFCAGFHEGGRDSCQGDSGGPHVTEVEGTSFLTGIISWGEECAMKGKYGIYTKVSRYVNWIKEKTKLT
T5 sequence (P00740 47-191 limits assumed): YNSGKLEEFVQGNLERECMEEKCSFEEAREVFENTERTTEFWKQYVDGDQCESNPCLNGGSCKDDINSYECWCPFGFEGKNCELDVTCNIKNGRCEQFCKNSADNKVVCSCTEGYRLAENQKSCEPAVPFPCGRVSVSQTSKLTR
T1 sequence (P04070 212-450 limits assumed): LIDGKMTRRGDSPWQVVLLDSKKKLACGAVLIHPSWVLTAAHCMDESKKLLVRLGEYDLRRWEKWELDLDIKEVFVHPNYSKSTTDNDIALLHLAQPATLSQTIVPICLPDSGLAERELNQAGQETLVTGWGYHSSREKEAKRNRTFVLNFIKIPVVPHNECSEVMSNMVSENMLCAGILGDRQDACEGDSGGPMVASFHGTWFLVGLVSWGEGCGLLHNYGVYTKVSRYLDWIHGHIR
T1 sequence (P04070 43-197 limits assumed): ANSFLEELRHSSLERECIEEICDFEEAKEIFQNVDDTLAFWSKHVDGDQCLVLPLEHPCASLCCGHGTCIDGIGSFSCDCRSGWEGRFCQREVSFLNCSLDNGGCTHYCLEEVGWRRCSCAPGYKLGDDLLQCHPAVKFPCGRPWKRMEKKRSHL

As for `c1ccc2c(NC3CCCC3)nc(Nc3ccncc3)nc2c1` [JJ1], the “Concentration that doubled the clotting time, aPTT assay” value in the experiment with human plasma amounted to 1.66 µM. Moreover, the aPTT in the experiment with human plasma (0.05 μM) was found to be 23.5 ± 0.4 s; in the experiment with human plasma (0.1 μM), 23.3 ± 0.2 s; in the experiment on human plasma (0.2 μM) it was 24.2 ± 0.4 s; in the experiment with human plasma (0.5 μM) it was 32.4 ± 0.6 s; in the experiment with human plasma (1.0 μM), 41.3 ± 0.4 s; in the experiment with human plasma (2.0 μM) it was 50.4 ± 0.6 s. Further, the aPTT with human plasma (5.0 μM) is 51.6 ± 0.4 s. The Selectivity ratio is given as >10,000 on Protein Ca (K i Protein Ca/K i α-thrombin); >10,000 at Streptokinase (K i Streptokinase/K i α-thrombin); 1 on human α-thrombin (K i enzyme/K i α-thrombin); >10,000 at Factor XIa (K i Factor XIa/K i α-thrombin); >10,000 on Factor IXa (K i Factor IXa/K i α-thrombin). Further, the inhibition constant (Ki) at Protein Ca (Protein Ca) is over 250 µM; at Streptokinase (Streptokinase), over 250 µM; on human α-thrombin (mean ± SD (n = 5)), 0.019 ± 0.0005 µM; on Trypsin it was over 250 µM; on Factor XIa (Factor XIa), over 250 µM; on Factor IXa (Factor IXa) it was over 250 µM. In addition, the “Mouse platelet aggregation induced by thrombin, ex vivo” value with mouse platelet is reported as “confirmed in an ex vivo platelet aggregation assay”. Further, the “Degree of inhibition in the enzyme-based assay” value at thrombin was “inhibitory effects”. Also, the “Growth of thrombi (time to large thrombus formation)” value in [1] (FeCl3-induced thrombosis) is recorded as “significantly slowed the growth of thrombi”. The “Thrombus size at 60 min after FeCl3-induced endothelial injury” value in [1] is recorded as “reduced FeCl3-induced thrombus formation”.

These data come from publication PMC5665883, “Antithrombotic properties of JJ1, a potent and novel thrombin inhibitor” (Scientific Reports, 2017).
